{"source": "patent US9751830B2", "about": "“Inhibitors of the tumor necrosis factor receptor complex” (The Trustees of the University of Pennsylvania, priority 2010, dated 2017)", "key": {"[1]": {"test_system": "TNFα mediated NFκB activity (A549Luc cells)", "assay": "TNFα mediated NFκB luciferase reporter assay in A549Luc cells", "type": "cell-based, human", "conditions": "for inhibition of TNFα mediated luciferase activity: 1 hr pre-treatment, 20 ng/ml TNFα 4 hours, FIG. 7; for activity to reduce luciferase activity, F002 and MH0724 compared: concentrations up to 75 μM", "experimental": "To study TNFα mediated-NFκB activity, a luciferase reporter system was established. The stable cell line A549Luc was derived from human A549 cells with chromosomal integration of a luciferase reporter construct regulated by 6 copies of the NFκB response element. This clonal cell line was obtained by co-transfection of pNFκB-TA-luc and pFLAG-TNFR1-neo followed by G418 selection at 800 μg/ml. A549Luc cells were pre-treated with inhibitors at indicated concentrations for 1 hr before incubation with 20 ng/ml TNFα for 4 hours. Increased luciferase activity was recorded after TNFα treatment. Luciferase activity was determined using the Luciferase Assay System from Promega.\nIn this assay, the luciferase activity of A549Luc cells before and after TNFα treatment (20 ng/ml) was equivalent to 0% and 100%, respectively."}, "[2]": {"test_system": "phosphorylation of IκB (p-IκBα(Ser32))", "assay": "Western blot of TNFα-induced phosphorylation of IκB in L929 cells", "type": "cell-based, murine", "conditions": "FIG. 4", "experimental": "(§1) hTNF-α was obtained from Sigma (Cat # T6674). Antibodies for IκB, phospho-IκB, p38, and phospho-p38 were purchased from Cell Signaling.\n(§2) Stock L929 cells were grown on tissue culture plastic in complete Dulbecco's Modified Eagle Medium (DMEM) supplemented with 5 weight percent FBS [Fetal Bovine Serum], NEAA [non-essential amino acids], and glutamine. In a first set of experiments, L929 cells were plated using the same medium on 96-well tissue culture plates at high density (i.e., 30,000 cells/well) before use. In a second set of experiments, the testing compounds were pre-incubated with cells for 1 hour. hTNF-α (10 ng/ml) was added to cells for 30 minutes. Cell lysates were then collected for routine Western Blot.\n(§3) Inhibition of TNFα signaling pathways: Upon binding to TNFRs, TNFα induces inflammation through the activation of NFκB and p38 signaling pathways. We determined IκB and p38 effects. IκB is the inhibitor for NFκB. TNFα leads to the phosphorylation and disassociation of IκB from NFκB, a signaling event required for NFκB to become activated and translocate into the nucleus to mediate gene transcription."}, "L929 cells": {"test_system": "L929 cells", "assay": "Inhibition of TNF-α-induced cytolysis in L929 cells (Crystal Violet staining)", "type": "cell-based, murine", "experimental": "L929 cultured murine fibroblast cells were obtained from American Type Culture collection (Manassas, Va.). TNF-α was obtained from Roche Applied Science (T6674). Actinomycin D (ACTD) and Crystal Violet were obtained from Sigma-Aldrich. Testing compounds were dissolved in DMSO at 25 mM. Compounds F001 and FT002/F002, appearing in FIG. 3 and FIG. 2/FIG. 4, were described previously in application Ser. No. 11/815,134 as FIGS. 1-6 and 1-9, respectively, and are reproduced here for reference. Compound 71023, appearing in FIG. 1, was ([(aminocarbothioyl)amino]{[4-({[[(aminocarbothioyl)amino](ammonio)methyl]amino}methyl)-2,5-dimethylbenzyl]amino}methylidene)ammonium dichloride, available from Maybridge Chemicals, UK. Compound MH_072 (also described herein as the compound of formula (II)) was also obtained from Maybridge Chemicals, UK. Compound MH_0724 was synthesized by Sapient Discovery, San Diego, Calif., as described in Example 2.\nas §2\n(§4) Approximately 20 hours after plating the L929 cells on 96-well plates, they were re-fed onto fresh medium containing the test compounds (from 0 to 100 μM, final concentration).\nFor the TNF-α challenges, approximately 30 minutes later, medium containing 4 unit/mL rh-TNF-α and actinomycin D (10 μg/mL) was added. The final concentrations of rh-TNF-α in the assays were […], which is the ED50 concentrations confirmed to induce 50% cell death. The final concentrations of actinomycin D in the assays were 2.5 μg/mL. The plates were incubated for an additional 16-20 hours at 37° C., 5 vol % CO2 in air.\nFor Crystal Violet staining, the culture medium was discarded and replaced with 0.2% by weight (in 2% by volume ethanol in water), 100 μL/well. After 15 minutes incubation at room temperature, the plates were washed 6 times with deionized water and dried at 37° C. for 40 minutes. Sodium dodecylsylfate (SDS), (1 wt % in water; 100 μL) was added to each well and mixed gently for 1 hour at room temperature. The plates were read at A570 nm"}, "[3]": {"target": "T1, TNFR1 ectodomain (TNFR1 ECD) (Homo sapiens, UniProt P19438)", "T1 construct": "The calorimetric cell containing purified TNFR1 ectodomain at a concentration of 0.1 mM; His; made in house", "T1 sequence (P19438 30-211 limits assumed)": "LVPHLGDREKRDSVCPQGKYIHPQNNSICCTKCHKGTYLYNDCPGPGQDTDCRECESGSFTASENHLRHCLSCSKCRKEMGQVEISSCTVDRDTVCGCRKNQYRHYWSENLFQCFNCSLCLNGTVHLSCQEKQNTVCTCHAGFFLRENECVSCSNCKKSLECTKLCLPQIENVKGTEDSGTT", "assay": "Isothermal titration calorimetry (ITC) binding to TNFR1 ectodomain", "conditions": "25° C., pH 8.0, 5% DMSO, estimated, read-out: affinity between compound and TNFR1 ECD", "experimental": "Human TNFR1 ectodomain was expressed in bacteria as described Murali, et al., 2005 PNAS 102:10970-75, which is incorporated by reference herein in its entirety. The His-tagged recombinant protein was purified from bacterial cell lysate using Ni-NTA column About 4 mg proteins were obtained from 6 liters of culture. The purified TNFR1 ectodomain was verified for binding activity to hTNF-α in ELISA assay.\nIsothermal Titration calorimetry (ITC). The binding thermodynamics of MH724 to TNFR1 was measured by ITC using a high precision VP-ITC titration calorimetric system (Microcal LLC, Northampton, Mass.). The calorimetric cell containing purified TNFR1 ectodomain at a concentration of 0.1 mM in 50 mM sodium phosphate buffer (pH 8.0) containing 300 mM NaCl and 5% DMSO was titrated with MH724 dissolved in the same buffer. The concentration of inhibitor was 2 mM. Injection volumes were 8 μl. All solutions were properly degassed to avoid any formation of bubbles in the calorimeter during stirring. The heat evolved upon each injection of inhibitor was obtained from the integral of the calorimetric signal. The heat associated with the binding of the inhibitor to TNFR1 was obtained by subtracting the heat of dilution from the heat of reaction. The measurements were made at 25° C. Data were analyzed and fitted by using the data analysis software supplied by Microcal (ORIGIN 5.0)."}, "[4]": {"test_system": "phosphorylation of p38 (p-p38)", "assay": "Western blot of TNFα-induced phosphorylation of p38 in L929 cells", "type": "cell-based, murine", "conditions": "50 μM; 1 hour pre-incubation, hTNF-α 10 ng/ml 30 minutes; FIG. 4", "experimental": "as §1, §2, §3"}, "[5]": {"assay": "Solubility under the conditions of the L929 cytolysis assay", "type": "physicochemical", "conditions": "L929 cytolysis assay medium, plasma or biological fluid; read-out: soluble under these conditions only up to", "experimental": "as §4"}}, "data": [{"smiles": "CC(=O)Oc1ccc(C(O)(c2ccc(OC(C)=O)cc2)c2ccc(OC(C)=O)cc2)cc1", "note": "[Compound F002, reference compound]", "values": [{"measurement": "inhibition of TNFα mediated luciferase activity", "setting": "[1]", "result": "dose-dependent manner"}, {"measurement": "activity to reduce luciferase activity, F002 and MH0724 compared", "setting": "[1]", "result": "comparable activity"}, {"measurement": "activity on TNFα signaling, F002 compared with MH724", "setting": "[2]; 10 μM, IκB and p38 phosphorylation", "result": "slightly more activity"}]}, {"smiles": "COC(CNc1ccc(C(F)(F)F)cc1)COc1ccccc1COC(C)=O", "note": "(stereo not shown) [MH_0724, Acetic acid 2-[2-methoxy-3-(4-trifluoromethyl-phenylamino)-propoxy]-benzyl ester]", "values": [{"measurement": "inhibition at 100 µM", "setting": "L929 cells; Mus musculus, L929, 100 μM, read-out: maximal inhibition of TNF-α-induced cytolysis", "result": "~70", "unit": "%"}, {"measurement": "inhibition at 50 µM", "setting": "L929 cells; Mus musculus, L929, at 50 μM", "result": "~40", "unit": "%"}, {"measurement": "inhibition of TNF-α-induced cytolysis", "setting": "L929 cells; at 50 μM", "result": "about 40%"}, {"measurement": "inhibition of TNF-α-induced cytolysis in L929 cells", "setting": "L929 cells; from 0 to 100 μM, FIG. 3", "result": "dose-dependent inhibition"}, {"measurement": "Kd", "setting": "[3]", "result": 32, "unit": "µM"}, {"measurement": "luciferase activity, of the control", "setting": "[1]; 100 μM, before and after TNFα treatment = 0% and 100%", "result": "less than 40%"}, {"measurement": "inhibition of TNFα mediated luciferase activity", "setting": "[1]", "result": "dose-dependent manner"}, {"measurement": "activity to reduce luciferase activity, F002 and MH0724 compared", "setting": "[1]", "result": "comparable activity"}, {"measurement": "inhibition of TNFα-induced phosphorylation of IκB", "setting": "[2]; 50 μM, 1 hour pre-incubation, hTNF-α 10 ng/ml 30 minutes", "result": "clearly inhibits"}, {"measurement": "activity on TNFα signaling, MH724 compared with F002", "setting": "[2]; 50 μM, IκB and p38 phosphorylation", "result": "better activity"}, {"measurement": "inhibition of TNFα-induced phosphorylation of p38", "setting": "[4]", "result": "clearly inhibits"}]}, {"smiles": "CC(=O)Nc1ccccc1OCC(O)CNCc1ccc(C(F)(F)F)cc1", "note": "(stereo not shown) [MH_072]", "values": [{"measurement": "maximum inhibition of TNF-α-induced cytolysis", "setting": "L929 cells; 0 to 50 μM, level limited by solubility", "result": "about 30%"}, {"measurement": "inhibition at 50 µM", "setting": "L929 cells; Mus musculus, L929, at 50 μM", "result": "~30", "unit": "%"}, {"measurement": "inhibition of TNF-α-induced cytolysis in L929 cells", "setting": "L929 cells; from 0 to 50 μM, FIG. 2", "result": "dose-dependent inhibition"}, {"measurement": "solubility", "setting": "[5]", "result": "≤ 50", "unit": "µM"}]}, {"smiles": "COc1ccc(C(O)(c2ccc(OC)cc2)c2ccc(OC)cc2)cc1", "note": "[Compound F001, reference compound]", "values": [{"measurement": "inhibition of TNF-α-induced cytolysis in L929 cells", "setting": "L929 cells; from 0 to 100 μM, FIG. 3", "result": "minimal activity"}]}]}
